This test concerns influenza A virus (A/PR/8/34). The test can be described thus: microbe, parasite or virus in culture. The test is classed as cell-based.
Where [1] appears, read: Influenza A virus, PR/8, MDCK, mean all, A/PR/8/34 infected MDCK cells, CPE assay, read-out: IC50.
Where [2] appears, read: Influenza A virus, PR/8, MDCK, MDCK cells infected with A/PR/8/34, cell protection (CPE), read-out: IC50 (mean all).

Read-outs that look alike come from different tables or passages of the source.

Regarding “1-[trans-2-[[2-(5-chloro-1H-pyrrolo[2,3-b]pyridin-3-yl)-5-fluoro-pyrimidin-4-yl]amino]cyclohexyl]-3-propyl-urea [Compound 350]”, the 50% inhibitory concentration (IC50) – broadly, the midpoint of a concentration-inhibition curve – (read-out: IC50) lay in the range of 5 to 20 µM.

Turning to `CCC(=O)N[C@@H]1CCCC[C@@H]1Nc1nc(-c2c[nH]c3ncc(Cl)cc23)ncc1F` (relative stereo) [Compound 333, N-[cis-2-[[2-(5-chloro-1H-pyrrolo[2,3-b]pyridin-3-yl)-5-fluoro-pyrimidin-4-yl]amino]cyclohexyl]propanamide], the IC50 under setting [1] lay within 5 to 20 µM.

Regarding `CCCC(=O)N[C@@H]1CCCC[C@@H]1Nc1nc(-c2c[nH]c3ncc(Cl)cc23)ncc1F` (relative stereo) [Compound 334, N-[cis-2-[[2-(5-chloro-1H-pyrrolo[2,3-b]pyridin-3-yl)-5-fluoro-pyrimidin-4-yl]amino]cyclohexyl]butanamide], the concentration for half-maximal inhibition (IC50) under setting [1] was 5 to 20 µM.

As for `O=C(N[C@@H]1CCCC[C@@H]1Nc1nc(-c2c[nH]c3ncc(Cl)cc23)ncc1F)C1CCCC1` (relative stereo) [Compound 335, N-[cis-2-[[2-(5-chloro-1H-pyrrolo[2,3-b]pyridin-3-yl)-5-fluoro-pyrimidin-4-yl]amino]cyclohexyl]cyclopentanecarboxamide], the IC50 under setting [1] is > 20 µM.

Regarding `O=C(N[C@@H]1CCCC[C@@H]1Nc1nc(-c2c[nH]c3ncc(Cl)cc23)ncc1F)c1ccccc1` (relative stereo) [Compound 336, N-[cis-2-[[2-(5-chloro-1H-pyrrolo[2,3-b]pyridin-3-yl)-5-fluoro-pyrimidin-4-yl]amino]cyclohexyl]benzamide], under setting [1], the IC50 was > 20 µM.

Regarding `CCCS(=O)(=O)N[C@@H]1CCCC[C@@H]1Nc1nc(-c2c[nH]c3ncc(Cl)cc23)ncc1F` (relative stereo) [Compound 338, N-[cis-2-[[2-(5-chloro-1H-pyrrolo[2,3-b]pyridin-3-yl)-5-fluoro-pyrimidin-4-yl]amino]cyclohexyl]propane-1-sulfonamide], the IC50 under setting [1] is > 20 µM.

As to `CCCNC(=O)N[C@@H]1CCCC[C@@H]1Nc1nc(-c2c[nH]c3ncc(Cl)cc23)ncc1F` (relative stereo) [Compound 339, 1-[cis-2-[[2-(5-chloro-1H-pyrrolo[2,3-b]pyridin-3-yl)-5-fluoro-pyrimidin-4-yl]amino]cyclohexyl]-3-propyl-urea], the IC50 under setting [1] was 5 to 20 µM.

Consider `CCC(=O)N[C@@H]1CCCC[C@@H]1Nc1nc(-c2c[nH]c3ncccc23)ncc1F` (relative stereo) [Compound 341, N-[cis-2-[[5-fluoro-2-(1H-pyrrolo[2,3-b]pyridin-3-yl)pyrimidin-4-yl]amino]-cyclohexyl]propanamide], for which the IC50 under setting [1] was > 20 µM.

Consider `CCCC(=O)N[C@@H]1CCCC[C@@H]1Nc1nc(-c2c[nH]c3ncccc23)ncc1F` (relative stereo) [Compound 342, N-[cis-2-[[5-fluoro-2-(1H-pyrrolo[2,3-b]pyridin-3-yl)pyrimidin-4-yl]amino]cyclohexyl]butanamide], for which the half-inhibitory concentration (IC50) under setting [1] is > 20 µM.

`O=C(N[C@@H]1CCCC[C@@H]1Nc1nc(-c2c[nH]c3ncccc23)ncc1F)C1CCCC1` (relative stereo) [Compound 343, N-[cis-2-[[5-fluoro-2-(1H-pyrrolo[2,3-b]pyridin-3-yl)pyrimidin-4-yl]amino]cyclohexyl]cyclopentanecarboxamide]: the IC50 under setting [1] is > 20 µM.

As for `O=C(N[C@@H]1CCCC[C@@H]1Nc1nc(-c2c[nH]c3ncccc23)ncc1F)c1ccccc1` (relative stereo) [Compound 344, N-[cis-2-[[5-fluoro-2-(1H-pyrrolo[2,3-b]pyridin-3-yl)pyrimidin-4-yl]amino]cyclohexyl]benzamide], the half-maximal inhibitory concentration (IC50) under setting [1] was > 20 µM.

For `CCCS(=O)(=O)N[C@@H]1CCCC[C@@H]1Nc1nc(-c2c[nH]c3ncccc23)ncc1F` (relative stereo) [Compound 346, N-[cis-2-[[5-fluoro-2-(1H-pyrrolo[2,3-b]pyridin-3-yl)pyrimidin-4-yl]amino]cyclohexyl]propane-1-sulfonamide], under setting [1], the half-maximal inhibitory concentration (IC50) was > 20 µM.

On to `CCCNC(=O)N[C@@H]1CCCC[C@@H]1Nc1nc(-c2c[nH]c3ncccc23)ncc1F` (relative stereo) [Compound 347, 1-[cis-2-[[5-fluoro-2-(1H-pyrrolo[2,3-b]pyridin-3-yl)pyrimidin-4-yl]amino]cyclohexyl]-3-propyl-urea], for which the IC50 under setting [1] was > 20 µM.

For the compound `CCC(=O)N[C@@H]1CCCC[C@H]1Nc1nc(-c2c[nH]c3ncc(Cl)cc23)ncc1F` (relative stereo) [Compound 349, N-[trans-2-[[2-(5-chloro-1H-pyrrolo[2,3-b]pyridin-3-yl)-5-fluoro-pyrimidin-4-yl]amino]cyclohexyl]propanamide], the IC50 under setting [1] is > 20 µM.

As for `CCCC(=O)N[C@@H]1CCCC[C@H]1Nc1nc(-c2c[nH]c3ncc(Cl)cc23)ncc1F` (relative stereo) [Compound 363, N-[trans-2-[[2-(5-chloro-1H-pyrrolo[2,3-b]pyridin-3-yl)-5-fluoro-pyrimidin-4-yl]amino]cyclohexyl]butanamide], under setting [1], the IC50 was > 20 µM.

Turning to `O=C(N[C@@H]1CCCC[C@H]1Nc1nc(-c2c[nH]c3ncc(Cl)cc23)ncc1F)c1ccccc1` (relative stereo) [Compound 365, N-[trans-2-[[2-(5-chloro-1H-pyrrolo[2,3-b]pyridin-3-yl)-5-fluoro-pyrimidin-4-yl]amino]cyclohexyl]benzamide], the half-inhibitory concentration (IC50) under setting [1] was > 20 µM.

On to `CCCS(=O)(=O)N[C@@H]1CCCC[C@H]1Nc1nc(-c2c[nH]c3ncc(Cl)cc23)ncc1F` (relative stereo) [Compound 367, N-[trans-2-[[2-(5-chloro-1H-pyrrolo[2,3-b]pyridin-3-yl)-5-fluoro-pyrimidin-4-yl]amino]cyclohexyl]propane-1-sulfonamide], for which the IC50 under setting [1] was in the range of 5 to 20 µM.

Consider `CCCNC(=O)N[C@@H]1CCCC[C@H]1Nc1nc(-c2c[nH]c3ncc(Cl)cc23)ncc1F` (relative stereo) [Compound 368, 1-[trans-2-[[2-(5-chloro-1H-pyrrolo[2,3-b]pyridin-3-yl)-5-fluoro-pyrimidin-4-yl]amino]cyclohexyl]-3-propyl-urea], for which the IC50 under setting [1] was > 20 µM.

Take `CNC(=O)N[C@@H]1CCCC[C@@H]1Nc1nc(-c2c[nH]c3ncc(Cl)cc23)ncc1F` (relative stereo) [Compound 430, 1-[cis-2-[[2-(5-chloro-1H-pyrrolo[2,3-b]pyridin-3-yl)-5-fluoro-pyrimidin-4-yl]amino]cyclohexyl]-3-methyl-urea]: the half-inhibitory concentration (IC50) under setting [1] is < 5 µM.

`CN(C)C(=O)N[C@@H]1CCCC[C@@H]1Nc1nc(-c2c[nH]c3ncc(Cl)cc23)ncc1F` (relative stereo) [Compound 431, 3-[cis-2-[[2-(5-chloro-1H-pyrrolo[2,3-b]pyridin-3-yl)-5-fluoro-pyrimidin-4-yl]amino]cyclohexyl]-1,1-dimethyl-urea]: under setting [1], the IC50 is < 5 µM.

Take `COC(=O)N[C@@H]1CCCC[C@@H]1Nc1nc(-c2c[nH]c3ncc(Cl)cc23)ncc1F` (relative stereo) [Compound 432, Methyl N-[cis-2-[[2-(5-chloro-1H-pyrrolo[2,3-b]pyridin-3-yl)-5-fluoro-pyrimidin-4-yl]amino]cyclohexyl]carbamate]: the half-inhibitory concentration (IC50) under setting [1] was > 20 µM.

Consider `NC1CCCCC1Nc1nc(-c2c[nH]c3ncccc23)ncc1F` (stereo not drawn) [Compound 4, N1-(5-fluoro-2-(1H-pyrrolo[2,3-b]pyridin-3-yl)pyrimidin-4-yl)cyclohexane-1,2-diamine], for which the IC50 (MDCK cells infected with A/PR/8/34, cell protection (CPE), read-out: IC50 (mean all)) is > 20 µM.

Consider `OC1CCCC[C@@H]1CNc1nc(-c2c[nH]c3ncc(Cl)cc23)ncc1F` (stereo partly drawn) [Compound 12, (2R)-2-((2-(5-chloro-1H-pyrrolo[2,3-b]pyridin-3-yl)-5-fluoropyrimidin-4-ylamino)methyl)cyclohexanol], for which the IC50 under setting [2] was > 20 µM.

As for `OC1CCCCC1Nc1nc(-c2c[nH]c3ncc(Cl)cc23)ncc1F` (stereo not drawn) [Compound 13, 2-(2-(5-chloro-1H-pyrrolo[2,3-b]pyridin-3-yl)-5-fluoropyrimidin-4-ylamino)cyclohexanol], the IC50 under setting [2] is < 5 µM.

In the case of `CCOC(=O)CCCC(=O)N1CCC[C@@H](CNc2nc(-c3c[nH]c4ncc(Cl)cc34)ncc2F)C1` [Compound 19, (S)-ethyl 5-(3-((2-(5-chloro-1H-pyrrolo[2,3-b]pyridin-3-yl)-5-fluoropyrimidin-4-ylamino)methyl)piperidin-1-yl)-5-oxopentanoate], the half-maximal inhibitory concentration (IC50) under setting [2] was > 20 µM.

For the compound `CC(C)(C)NC(=O)N1CCC[C@@H](CNc2nc(-c3c[nH]c4ncc(Cl)cc34)ncc2F)C1` [Compound 20, (S)—N-tert-butyl-3-((2-(5-chloro-1H-pyrrolo[2,3-b]pyridin-3-3-yl)-5-fluoropyrimidin-4-ylamino)methyl)piperidine-1-carboxamide], under setting [2], the IC50 lay within 5 to 20 µM.

Regarding `COCCOC(=O)N1CCC[C@@H](CNc2nc(-c3c[nH]c4ncc(Cl)cc34)ncc2F)C1` [Compound 24, (S)-2-methoxyethyl 3-((2-(5-chloro-1H-pyrrolo[2,3-b]pyridin-3-yl)-5-fluoropyrimidin-4-ylamino)methyl)piperidine-1-carboxylate], the IC50 under setting [2] is > 20 µM.

Take `CNC(=O)N1CCC[C@@H](CNc2nc(-c3c[nH]c4ncc(Cl)cc34)ncc2F)C1` [Compound 29, (S)-3-((2-(5-chloro-1H-pyrrolo[2,3-b]pyridin-3-yl)-5-fluoropyrimidin-4-ylamino)methyl)-N-methylpiperidine-1-carboxamide]: the concentration for half-maximal inhibition (IC50) under setting [2] is 5 to 20 µM.

As for `CC(C)C(=O)N1CCC[C@@H](CNc2nc(-c3c[nH]c4ncc(Cl)cc34)ncc2F)C1` [Compound 34, (S)-1-(3-((2-(5-chloro-1H-pyrrolo[2,3-b]pyridin-3-yl)-5-fluoropyrimidin-4-ylamino)methyl)piperidin-1-yl)-2-methylpropan-1-one], the concentration for half-maximal inhibition (IC50) under setting [2] was < 5 µM.

Take `CC(C)OC(=O)N1CCC[C@@H](CNc2nc(-c3c[nH]c4ncc(Cl)cc34)ncc2F)C1` [Compound 35, (S)-isopropyl 3-((2-(5-chloro-1H-pyrrolo[2,3-b]pyridin-3-yl)-5-fluoropyrimidin-4-ylamino)methyl)piperidine-1-carboxylate]: the concentration for half-maximal inhibition (IC50) under setting [2] is > 20 µM.

Values taken from patent US8829007B2 (priority 2009, dated 2014).
